In PMC7377239, “Cardiovascular Effects of Polychlorinated Biphenyls and Their Major Metabolites” (Environmental Health Perspectives, 2020):
Counter-ions that a name gives are not always drawn.

System: iPSC-CMs, iPSC-ECs and HUVECs phenotypes
Assay: ToxPi 2.0 integration of POD values and physicochemical descriptors
Design: species or system human
Details: ToxPi-scaled (0-1) score; for huvec.cyto.24hr / huvec.mito.24hr / huvec.mitoint.24hr / huvec.nma.24hr / huvec.tc.24hr / huvec.mtl.18hr / huvec.tlps.18hr / huvec.tta.18hr / huvec.ttl.18hr: HUVECs; for huvec.mtl.18hr / huvec.tlps.18hr / huvec.tta.18hr / huvec.ttl.18hr / endo.mtl.18hr / endo.tlps.18hr / endo.tta.18hr / endo.ttl.18hr: tube formation; for cm.amp.avg.90min / cm.amp.cv.90min / cm.bpm.90min / cm.cam.90min / cm.decay.rise.90min / cm.mii.90min / cm.mito.90min / cm.spacing.cv.90min / cm.tc.90min / cm.amp.avg.24hrs / cm.amp.cv.24hrs / cm.bpm.24hrs / cm.cam.24hrs / cm.decay.rise.24hrs / cm.mii.24hrs / cm.mito.24hrs / cm.spacing.cv.24hrs / cm.tc.24hrs: iPSC cardiomyocytes; for endo.cyto.24hr / endo.mito.24hr / endo.mitoint.24hr / endo.nma.24hr / endo.tc.24hr / endo.mtl.18hr / endo.tlps.18hr / endo.tta.18hr / endo.ttl.18hr: iPSC endothelial cells
Procedure, shortened: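 Phenotypic readouts in iPSC-cardiomyocytes, iPSC-endothelial cells and HUVECs were normalised to 0.5% DMSO vehicle and fitted to a four-parameter logistic model. POD set at one SD cutoff of vehicle means, with 100 μM assigned when no response. PODs and physicochemical descriptors combined in ToxPi 2.0 scores.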

SMILES: Oc1ccc(-c2cccc(Cl)c2)cc1Cl [4-OH-PCB 11]
- huvec.cyto.24hr: 0.4438
- huvec.mito.24hr: 0.5256
- huvec.mitoint.24hr: 0.5773
- huvec.nma.24hr: 0.5884
- huvec.tc.24hr: 0.4438
- huvec.mtl.18hr: 0.5918
- huvec.tlps.18hr: 0.1971
- huvec.tta.18hr: 0
- huvec.ttl.18hr: 0.4794
- cm.amp.avg.90min: 0.7012
- cm.amp.cv.90min: 0.353
- cm.bpm.90min: 0.1603
- cm.cam.90min: 0.5301
- cm.decay.rise.90min: 0.5246
- cm.mii.90min: 0.417
- cm.mito.90min: 0.3722
- cm.spacing.cv.90min: 0.09289
- cm.tc.90min: 0.417
- cm.amp.avg.24hrs: 0
- cm.amp.cv.24hrs: 0.6637
- cm.bpm.24hrs: 0.3605
- cm.cam.24hrs: 0.33
- cm.decay.rise.24hrs: 0.2928
- cm.mii.24hrs: 0.2219
- cm.mito.24hrs: 0.5458
- cm.spacing.cv.24hrs: 0.4379
- cm.tc.24hrs: 0.5639
- endo.cyto.24hr: 0.145
- endo.mito.24hr: 0.145
- endo.mitoint.24hr: 0.2813
- endo.nma.24hr: 0.4122
- endo.tc.24hr: 0.08397
- endo.mtl.18hr: 0.181
- endo.tlps.18hr: 0.1031
- endo.tta.18hr: 0.1681
- endo.ttl.18hr: 0.1683

SMILES: COc1ccc(-c2ccc(Cl)cc2)cc1 [4'-OMe-PCB 3, 4′-methoxy-4-chlorobiphenyl]
- huvec.cyto.24hr: 0.2539
- huvec.mito.24hr: 0.3347
- huvec.mitoint.24hr: 0.2259
- huvec.nma.24hr: 0.5435
- huvec.tc.24hr: 0.2539
- huvec.mtl.18hr: 0.5905
- huvec.tlps.18hr: 0.1332
- huvec.tta.18hr: 0.4823
- huvec.ttl.18hr: 0.3839
- cm.amp.avg.90min: 0.148
- cm.amp.cv.90min: 0.2333
- cm.bpm.90min: 0.4231
- cm.cam.90min: 0
- cm.decay.rise.90min: 0
- cm.mii.90min: 0
- cm.mito.90min: 0
- cm.spacing.cv.90min: 0.06946
- cm.tc.90min: 0
- cm.amp.avg.24hrs: 0.1468
- cm.amp.cv.24hrs: 0
- cm.bpm.24hrs: 0.4274
- cm.cam.24hrs: 0.02517
- cm.decay.rise.24hrs: 0.569
- cm.mii.24hrs: 0
- cm.mito.24hrs: 0
- cm.spacing.cv.24hrs: 0.5026
- cm.tc.24hrs: 0
- endo.cyto.24hr: 0
- endo.mito.24hr: 0
- endo.mitoint.24hr: 0.218
- endo.nma.24hr: 0
- endo.tc.24hr: 0
- endo.mtl.18hr: 0.3533
- endo.tlps.18hr: 0.3362
- endo.tta.18hr: 0.2327
- endo.ttl.18hr: 0.2433

SMILES: Clc1ccc(-c2ccccc2)cc1 [PCB 3, 4-chlorobiphenyl]
- huvec.cyto.24hr: 0
- huvec.mito.24hr: 0
- huvec.mitoint.24hr: 0
- huvec.nma.24hr: 0
- huvec.tc.24hr: 0
- huvec.mtl.18hr: 0.3075
- huvec.tlps.18hr: 0
- huvec.tta.18hr: 0.9931
- huvec.ttl.18hr: 0.7484
- cm.amp.avg.90min: 0.3083
- cm.amp.cv.90min: 0.6784
- cm.bpm.90min: 0.3832
- cm.cam.90min: 0.5745
- cm.decay.rise.90min: 0
- cm.mii.90min: 1
- cm.mito.90min: 0.6328
- cm.spacing.cv.90min: 1
- cm.tc.90min: 0.6608
- cm.amp.avg.24hrs: 0.05114
- cm.amp.cv.24hrs: 0.2083
- cm.bpm.24hrs: 0.1867
- cm.cam.24hrs: 0.3496
- cm.decay.rise.24hrs: 0.3179
- cm.mii.24hrs: 0.587
- cm.mito.24hrs: 0.5833
- cm.spacing.cv.24hrs: 0.1653
- cm.tc.24hrs: 0.6127
- endo.cyto.24hr: 0
- endo.mito.24hr: 0
- endo.mitoint.24hr: 0
- endo.nma.24hr: 0
- endo.tc.24hr: 0
- endo.mtl.18hr: 0
- endo.tlps.18hr: 0
- endo.tta.18hr: 0
- endo.ttl.18hr: 0

SMILES: O=S(=O)(O)Oc1cc(-c2ccccc2)ccc1Cl [3-PCB 3 sulfate]
- huvec.cyto.24hr: 0
- huvec.mito.24hr: 0
- huvec.mitoint.24hr: 0
- huvec.nma.24hr: 0
- huvec.tc.24hr: 0
- huvec.mtl.18hr: 0.4834
- huvec.tlps.18hr: 0.07929
- huvec.tta.18hr: 0
- huvec.ttl.18hr: 0.09819
- cm.amp.avg.90min: 0.1033
- cm.amp.cv.90min: 0
- cm.bpm.90min: 0
- cm.cam.90min: 0
- cm.decay.rise.90min: 0
- cm.mii.90min: 0
- cm.mito.90min: 0
- cm.spacing.cv.90min: 0
- cm.tc.90min: 0
- cm.amp.avg.24hrs: 0
- cm.amp.cv.24hrs: 0
- cm.bpm.24hrs: 0
- cm.cam.24hrs: 0
- cm.decay.rise.24hrs: 0
- cm.mii.24hrs: 0.391
- cm.mito.24hrs: 0
- cm.spacing.cv.24hrs: 0
- cm.tc.24hrs: 0
- endo.cyto.24hr: 0
- endo.mito.24hr: 0
- endo.mitoint.24hr: 0
- endo.nma.24hr: 0
- endo.tc.24hr: 0
- endo.mtl.18hr: 0
- endo.tlps.18hr: 0.4317
- endo.tta.18hr: 0
- endo.ttl.18hr: 0

SMILES: Oc1cc(Cl)c(-c2cc(Cl)ccc2Cl)cc1Cl [4-OH-PCB 52]
- huvec.cyto.24hr: 0.4769
- huvec.mito.24hr: 0.5351
- huvec.mitoint.24hr: 0.7457
- huvec.nma.24hr: 0
- huvec.tc.24hr: 0.4769
- huvec.mtl.18hr: 0.5555
- huvec.tlps.18hr: 0.604
- huvec.tta.18hr: 0.1308
- huvec.ttl.18hr: 0.07185
- cm.amp.avg.90min: 0.2901
- cm.amp.cv.90min: 0.2696
- cm.bpm.90min: 1
- cm.cam.90min: 1
- cm.decay.rise.90min: 0.2017
- cm.mii.90min: 0.2919
- cm.mito.90min: 1
- cm.spacing.cv.90min: 0.1401
- cm.tc.90min: 1
- cm.amp.avg.24hrs: 0.1949
- cm.amp.cv.24hrs: 0.09883
- cm.bpm.24hrs: 0.4544
- cm.cam.24hrs: 0.15
- cm.decay.rise.24hrs: 0.2583
- cm.mii.24hrs: 0.1136
- cm.mito.24hrs: 0.2161
- cm.spacing.cv.24hrs: 0.3488
- cm.tc.24hrs: 0.2027
- endo.cyto.24hr: 0.3535
- endo.mito.24hr: 0.3535
- endo.mitoint.24hr: 0.1136
- endo.nma.24hr: 0.0802
- endo.tc.24hr: 0.3161
- endo.mtl.18hr: 0.2459
- endo.tlps.18hr: 0.3982
- endo.tta.18hr: 0.1729
- endo.ttl.18hr: 0.1737
